According to patent US5750405A, “Method for the detection for protein” (priority 1996, dated 1998):

Columns and labels:
[1] = molecular target: human serum albumin (HSA) (Homo sapiens, UniProt P02768); test: DIDNTB reagent strip protein response, Example I, HSA; settings: for protein response: Example I, 6 mM of substituted alkane; for % change in response, HSA 30 mg/dL: additive 6 mM, vs control formula lacking additive, negative = loss of protein response
Source text: (§1) The DIDNTB protein reagent was made from two saturations of Alhstrom 204 filter paper in which the first saturation was made with an aqueous ethanol mix containing tartaric acid as buffer and methyl red as background dye. The pH was adjusted to 2.1. The second saturation was with a toluene/tetrahydrofuran mix containing the DIDNTB indicator dye and Lutanol M40 (a polyvinylmethylether) as a color enhancer polymer.
(§2) The mix solutions were used to saturate the filter paper and the paper was dried at 105° C. for 7 minutes after each saturation. The resultant dry reagents were processed into reagent strips which were tested on a Clinitek-200+ reflectance spectrophotometer from Bayer Diagnostics after dipping into urine containing 0 or 30 mg/dL human serum albumin or 40 mg/dL of another urinary protein. The particulars of each dip solution are set out in Table 3.
Prior to the addition of HSA, the urine sample was filtered through an ultrafiltration membrane having a 10 KDa (kilodalton) molecular weight cut-off to remove naturally occurring proteins. The total protein in the urine sample was determined using an immunological HSA assay and the Coomassie Brilliant Blue (CBB) method described by Perini et al as cited above to screen over 175 clinical samples to provide specimens lacking albumin but containing other urine protein. […] These urines were pooled and diluted with negative urine to 40 mg/dL by the CBB method and less than 1.2 mg/dL by immunological HSA assay. The reagent response was measured on the […]-200+ instrument as the result of 1000×% Reflectance @ 610 nm/% reflectance @ 690 nm. The difference between negative and protein containing urines was taken as the protein response. The data generated by this experiment are set out in Table 1 in which the protein response of control formula lacking polymer or substituted alkane additive is compared to the formulas containing polymer or alkane to determine the % change in response. Negative numbers indicate greater loss of protein response.
The HSA response in the presence of these additives was compared to the response for other urinary proteins such as Tamm Horsefall glycoprotein, Bence-Jones protein, α-1-microglobin, hemoglobin and various low molecular weight protein fragments. The additives were used at a 0.1% (w/w) concentration to allow a measurable HSA response in all cases. The 0.1% concentration amounts to […] concentration of additive and is in excess of the 4.4 μM concentration of the proteins tested.

[2] = tested on: Urinary proteins; test: DIDNTB reagent strip protein response, Example I, other urinary proteins; type: binding; settings: additive 6 mM; vs control formula lacking additive; negative = loss of protein response
Source text: as §1, §2
Prior to the addition of HSA, the urine sample was filtered through an ultrafiltration membrane having a 10 KDa (kilodalton) molecular weight cut-off to remove naturally occurring proteins. The total protein in the urine sample was determined using an immunological HSA assay and the Coomassie Brilliant Blue (CBB) method described by Perini et al as cited above to screen over 175 clinical samples to provide specimens lacking albumin but containing other urine protein. […] These urines were pooled and diluted with negative urine to 40 mg/dL by the CBB method and less than 1.2 mg/dL by immunological HSA assay. The reagent response was measured on the […]-200+ instrument as the result of 1000×% Reflectance @ 610 nm/% reflectance @ 690 nm. The difference between negative and protein containing urines was taken as the protein response. The data generated by this experiment are set out in Table 1 in which the protein response of control formula lacking polymer or substituted alkane additive is compared to the formulas containing polymer or alkane to determine the % change in response. Negative numbers indicate greater loss of protein response. […]

[3] = tested on: albumin; settings: cited from earlier work
[4] = tested on: albumin; settings: Coomassie Brilliant Blue; cited from earlier work

Sequence of human serum albumin (HSA) (P02768 25-609): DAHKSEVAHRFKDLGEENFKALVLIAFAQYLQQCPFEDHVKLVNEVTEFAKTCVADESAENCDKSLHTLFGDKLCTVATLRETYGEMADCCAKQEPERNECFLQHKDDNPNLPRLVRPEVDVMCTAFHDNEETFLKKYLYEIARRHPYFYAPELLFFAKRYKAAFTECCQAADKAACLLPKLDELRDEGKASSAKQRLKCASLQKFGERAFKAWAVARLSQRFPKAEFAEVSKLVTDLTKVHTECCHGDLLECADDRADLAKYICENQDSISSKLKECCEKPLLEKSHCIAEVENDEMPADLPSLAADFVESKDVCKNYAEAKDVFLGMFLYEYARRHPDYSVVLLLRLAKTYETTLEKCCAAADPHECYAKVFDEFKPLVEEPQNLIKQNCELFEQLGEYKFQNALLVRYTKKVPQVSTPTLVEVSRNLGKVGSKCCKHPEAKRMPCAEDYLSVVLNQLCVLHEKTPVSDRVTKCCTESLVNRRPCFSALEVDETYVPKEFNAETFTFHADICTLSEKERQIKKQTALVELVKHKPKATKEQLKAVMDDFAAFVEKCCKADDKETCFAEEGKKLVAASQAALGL

Q: Which results are given for `CCCCCCCCCC(=O)O` [Decanoic acid]?
A: protein response [1]: did not affect the protein response; % change in response, HSA 30 mg/dL [1]: 7%; % change in response, Urinary proteins 40 mg/dL [2]: 2%

Q: What does the source list for `CCCCCCCCCCO` [Decanol]?
A: protein response [1]: did not affect the protein response; % change in response, HSA 30 mg/dL [1]: 3%; % change in response, Urinary proteins 40 mg/dL [2]: 8%

Q: Which “% change in response, Urinary proteins 40 mg/dL” value [2] does the source give for `CCCCCCCCCCCCCCCC(=O)O` [Hexadecanoic acid] here?
A: The value was 1%.

Q: With `CCCCCCCCCCCCCCCC(=O)O` [Palmitate, palmitic acid] as the compound, how does the “effect on the binding of phenol red to albumin” value [3] read?
A: Its value is “modest inhibitory effects”.

Q: With `CCCCCCCCCCCCOS(=O)(=O)[O-].[Na+]` [sodium dodecyl sulfate] as the compound, how does the “specificity of the test for albumin” value [4] read?
A: The value was “decreased the specificity”.
